Source: ChEMBL document CHEMBL1201862, “PubChem BioAssay data set” (2004)
Several values for one entry are separate records, joined by “and”; a condition that tells them apart may be missing. Equal values may be shown once. Activity calls are given as the source filed them.

Experiments:
[1] = HEK-293T cell viability reduction – luminescence, B-cell screen hits, cytotoxicity control for BCR NF-kB inhibitor project, dose response (AID 489021); format: functional, cell-based;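 note: HEK-293T cells carrying an NF-kB luciferase reporter; cells exposed to compound for about 14 hours before viability readout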
[2] = biological target: Glyceraldehyde-3-phosphate dehydrogenase (Homo sapiens, UniProt P04406)
Sequence of Glyceraldehyde-3-phosphate dehydrogenase (P04406 whole entry): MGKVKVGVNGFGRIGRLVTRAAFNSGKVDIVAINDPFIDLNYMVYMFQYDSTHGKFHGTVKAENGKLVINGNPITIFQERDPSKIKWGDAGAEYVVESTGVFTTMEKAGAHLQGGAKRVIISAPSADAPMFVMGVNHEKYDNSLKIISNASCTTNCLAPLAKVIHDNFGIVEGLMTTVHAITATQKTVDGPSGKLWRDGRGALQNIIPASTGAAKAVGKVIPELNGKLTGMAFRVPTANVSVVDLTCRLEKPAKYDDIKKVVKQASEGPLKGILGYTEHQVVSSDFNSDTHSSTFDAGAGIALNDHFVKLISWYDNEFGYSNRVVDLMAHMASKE

[3] = biological target: T1, Alkaline phosphatase, tissue-nonspecific isozyme (Homo sapiens, UniProt P05186); experiment: potency against alkaline phosphatase TNAP – biochemical, luminescent, dose response, SAR follow-up (AID 1056)
T1 sequence (P05186 whole entry): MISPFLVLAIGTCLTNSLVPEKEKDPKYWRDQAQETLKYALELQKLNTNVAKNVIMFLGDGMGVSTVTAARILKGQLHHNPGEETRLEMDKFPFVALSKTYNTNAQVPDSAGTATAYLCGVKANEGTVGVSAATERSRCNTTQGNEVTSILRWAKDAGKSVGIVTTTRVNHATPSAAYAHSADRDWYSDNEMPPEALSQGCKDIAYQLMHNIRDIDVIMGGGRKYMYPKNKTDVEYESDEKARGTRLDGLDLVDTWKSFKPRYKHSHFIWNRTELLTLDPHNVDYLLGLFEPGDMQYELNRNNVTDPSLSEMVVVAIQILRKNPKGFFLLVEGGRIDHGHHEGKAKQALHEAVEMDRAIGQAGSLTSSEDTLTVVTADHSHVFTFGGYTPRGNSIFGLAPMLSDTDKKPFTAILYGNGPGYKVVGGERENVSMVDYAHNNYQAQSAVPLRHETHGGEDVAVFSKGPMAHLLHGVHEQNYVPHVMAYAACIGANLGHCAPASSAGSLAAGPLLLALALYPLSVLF

[4] = biological target: T2, DNA dC->dU-editing enzyme APOBEC-3A (Homo sapiens, UniProt P31941); experiment: Dose Response confirmation of small molecule APOBEC3A DNA Deaminase Inhibitors via a fluorescence-based single-stranded DNA deaminase assay. [Related pubchem assays (depositor defined):AID493011, AID493024]; format: functional
T2 sequence (P31941 whole entry): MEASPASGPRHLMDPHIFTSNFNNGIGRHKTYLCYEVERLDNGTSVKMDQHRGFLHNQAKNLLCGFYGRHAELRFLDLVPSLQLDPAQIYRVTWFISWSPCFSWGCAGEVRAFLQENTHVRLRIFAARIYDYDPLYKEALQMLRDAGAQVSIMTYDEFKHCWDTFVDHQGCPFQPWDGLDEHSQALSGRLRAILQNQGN

[5] = biological target: T3, DNA dC->dU-editing enzyme APOBEC-3G (Homo sapiens, UniProt Q9HC16); format: functional
T3 sequence (Q9HC16 whole entry): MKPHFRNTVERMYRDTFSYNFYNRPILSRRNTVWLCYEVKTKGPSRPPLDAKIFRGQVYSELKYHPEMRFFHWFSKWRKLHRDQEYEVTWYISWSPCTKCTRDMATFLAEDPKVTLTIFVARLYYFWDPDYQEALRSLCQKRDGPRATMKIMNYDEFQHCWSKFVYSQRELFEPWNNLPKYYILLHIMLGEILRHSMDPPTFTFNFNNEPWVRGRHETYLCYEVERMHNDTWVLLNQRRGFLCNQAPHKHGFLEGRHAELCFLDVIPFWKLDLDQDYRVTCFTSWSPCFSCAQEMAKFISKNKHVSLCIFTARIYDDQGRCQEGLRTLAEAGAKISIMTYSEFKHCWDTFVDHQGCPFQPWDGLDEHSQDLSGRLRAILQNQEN

cells [6] = format: functional, cell-based
cells [7] = format: functional, cell-based; remark: listed apart in the source
[8] = biological target: Induced myeloid leukemia cell differentiation protein Mcl-1 (Homo sapiens, UniProt Q07820); format: functional
Sequence of Induced myeloid leukemia cell differentiation protein Mcl-1 (Q07820 whole entry): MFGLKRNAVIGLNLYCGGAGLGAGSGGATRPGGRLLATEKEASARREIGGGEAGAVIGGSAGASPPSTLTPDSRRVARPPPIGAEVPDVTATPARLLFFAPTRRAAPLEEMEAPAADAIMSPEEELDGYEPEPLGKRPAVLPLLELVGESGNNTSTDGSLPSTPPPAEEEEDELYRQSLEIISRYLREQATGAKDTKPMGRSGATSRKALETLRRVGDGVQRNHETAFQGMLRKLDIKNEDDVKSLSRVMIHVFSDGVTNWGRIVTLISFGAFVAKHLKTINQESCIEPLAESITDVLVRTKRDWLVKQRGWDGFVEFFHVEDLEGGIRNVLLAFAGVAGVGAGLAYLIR

[9] = biological target: T4, DNA repair protein RAD52 homolog (Homo sapiens, UniProt P43351); format: functional, biochemical
T4 sequence (P43351 whole entry): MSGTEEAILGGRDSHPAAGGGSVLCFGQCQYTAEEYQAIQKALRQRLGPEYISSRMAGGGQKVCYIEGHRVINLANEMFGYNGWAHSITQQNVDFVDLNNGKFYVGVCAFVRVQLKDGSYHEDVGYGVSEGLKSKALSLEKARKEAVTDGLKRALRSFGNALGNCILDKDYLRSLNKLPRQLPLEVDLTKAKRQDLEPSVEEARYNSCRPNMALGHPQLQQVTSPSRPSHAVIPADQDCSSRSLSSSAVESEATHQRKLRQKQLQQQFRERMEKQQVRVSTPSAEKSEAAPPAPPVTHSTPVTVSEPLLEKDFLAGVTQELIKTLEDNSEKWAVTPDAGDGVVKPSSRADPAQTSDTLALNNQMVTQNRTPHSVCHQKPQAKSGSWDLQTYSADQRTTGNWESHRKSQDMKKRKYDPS

Beta-galactosidase = Beta-galactosidase (Escherichia coli, UniProt Q8VNN2); experiment: Dose response counterscreen for EBI2 assay utilizing the enzyme, b-galactosidase.; format: functional
Sequence of Beta-galactosidase (Q8VNN2 whole entry): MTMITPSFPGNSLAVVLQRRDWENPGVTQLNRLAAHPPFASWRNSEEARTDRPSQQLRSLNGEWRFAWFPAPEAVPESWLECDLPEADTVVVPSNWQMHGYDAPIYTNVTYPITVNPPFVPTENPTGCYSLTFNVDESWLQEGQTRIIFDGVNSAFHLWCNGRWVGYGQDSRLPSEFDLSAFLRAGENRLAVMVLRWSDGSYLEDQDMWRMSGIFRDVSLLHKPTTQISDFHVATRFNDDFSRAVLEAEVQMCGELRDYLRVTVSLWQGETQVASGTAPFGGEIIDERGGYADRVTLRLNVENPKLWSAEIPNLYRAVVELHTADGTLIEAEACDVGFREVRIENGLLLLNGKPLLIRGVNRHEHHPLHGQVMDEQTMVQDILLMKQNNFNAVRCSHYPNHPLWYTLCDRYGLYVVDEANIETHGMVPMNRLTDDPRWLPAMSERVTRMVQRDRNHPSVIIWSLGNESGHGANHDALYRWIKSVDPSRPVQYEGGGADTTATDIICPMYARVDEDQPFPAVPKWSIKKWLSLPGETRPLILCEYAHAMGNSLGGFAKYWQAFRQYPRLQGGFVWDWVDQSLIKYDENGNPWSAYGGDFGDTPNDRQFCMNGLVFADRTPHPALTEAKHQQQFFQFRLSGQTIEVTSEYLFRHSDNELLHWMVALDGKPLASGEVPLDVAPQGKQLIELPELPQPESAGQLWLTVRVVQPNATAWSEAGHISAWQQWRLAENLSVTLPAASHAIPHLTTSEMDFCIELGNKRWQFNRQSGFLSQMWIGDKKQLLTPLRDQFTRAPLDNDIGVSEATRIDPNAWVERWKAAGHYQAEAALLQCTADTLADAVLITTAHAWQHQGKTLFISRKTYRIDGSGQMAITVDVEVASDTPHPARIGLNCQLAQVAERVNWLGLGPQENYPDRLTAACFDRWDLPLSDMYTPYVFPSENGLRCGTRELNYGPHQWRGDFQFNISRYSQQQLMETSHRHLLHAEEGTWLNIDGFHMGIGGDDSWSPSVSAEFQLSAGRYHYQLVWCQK

[10] = Luminescence Cell-Based Dose Response to Identify Activators of 5'UTR Stem-Loop Driven Prion Protein mRNA Translation in H4-C Neuroglioblastoma Cells. [Related pubchem assays: 1829 (Project Summary), 1814 (Primary HTS)]; format: functional
[11] = Luminescence Cell-Based Dose Response HTS to Identify Activators of Luciferase Translation or Activity in H4 […] Cells. [Related pubchem assays: 1829 (Project Summary), 1814 (Primary HTS)]; format: functional
H4 = experiment: Luminescence Cell-Based Dose Response HTS to Identify Activators of 5'UTR Stem-Loop Driven Prion Protein mRNA Translation in H4 Neuroglioblastoma Cells. [Related pubchem assays: 1829 (Project Summary), 1814 (Primary HTS)]; format: functional; conditions: Homo sapiens
[12] = Luminescence Cell-Based Dose Response to Identify Activators of Luciferase Translation or Activity in H4-C Neuroglioblastoma Cells. [Related pubchem assays: 1829 (Project Summary), 1814 (Primary HTS)]; format: functional
[13] = Luminescence Cell-Based Dose Confirmation to Identify Activators of 5'UTR Stem-Loop Driven Alpha-Synuclein mRNA Translation in H4 Neuroglioblastoma Cells. [Related pubchem assays: 1829 (Project Summary), 1814 (Primary HTS)]; format: functional
Cytochrome P450 3A4 = Cytochrome P450 3A4 (Homo sapiens, UniProt P08684); conditions: Potency;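 note: confirmatory qHTS run detecting inhibitors and substrates of CYP3A4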
Sequence of Cytochrome P450 3A4 (P08684 whole entry): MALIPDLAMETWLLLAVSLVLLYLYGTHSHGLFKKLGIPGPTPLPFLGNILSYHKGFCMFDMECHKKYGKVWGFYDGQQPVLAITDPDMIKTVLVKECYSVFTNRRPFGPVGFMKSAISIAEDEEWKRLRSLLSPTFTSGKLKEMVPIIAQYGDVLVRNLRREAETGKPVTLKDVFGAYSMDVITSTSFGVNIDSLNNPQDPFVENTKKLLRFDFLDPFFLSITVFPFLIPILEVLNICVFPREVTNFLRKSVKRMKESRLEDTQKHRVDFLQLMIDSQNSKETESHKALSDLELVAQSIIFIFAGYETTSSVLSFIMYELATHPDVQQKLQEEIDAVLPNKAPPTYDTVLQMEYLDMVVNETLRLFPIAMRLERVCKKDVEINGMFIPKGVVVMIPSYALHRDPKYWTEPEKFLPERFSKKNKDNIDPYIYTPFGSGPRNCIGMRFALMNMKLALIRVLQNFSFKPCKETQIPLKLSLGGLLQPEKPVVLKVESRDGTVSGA

Prothrombin = Prothrombin (Homo sapiens, UniProt P00734); experiment: Thrombin 1536 HTS Dose Response Confirmation. [Related pubchem assays: 1046 (Thrombin 1536 HTS; hits were confirmed in this assay)]; format: functional
[14] = biological target: T2, DNA dC->dU-editing enzyme APOBEC-3A; experiment: A3A deaminase inhibition for selectivity – biochemical, dose response (AID 504722); format: functional
[15] = biological target: T3, DNA dC->dU-editing enzyme APOBEC-3G; experiment: Dose Response confirmation of small molecule APOBEC3G DNA Deaminase Inhibitors via a fluorescence-based single-stranded DNA deaminase assay. [Related pubchem assays (depositor defined):AID493012, AID493028]; format: functional
[16] = Luminescence Cell-Based Dose Confirmation HTS to Identify Activators of 5'UTR Stem-Loop Driven Alpha-Synuclein mRNA Translation in H4 Neuroglioblastoma Cells. [Related pubchem assays: 1829 (Project Summary), 1814 (Primary HTS)]; format: functional
Troponin, cardiac muscle = Troponin, cardiac muscle (Homo sapiens, UniProt P19429+P45379+P63316); experiment: Fluorescence-based biochemical high throughput dose response assay for activators of the calcium sensitivity of cardiac Regulated Thin Filaments (RTF). [Related pubchem assays (depositor defined):AID493008, AID493018, AID504382, AID504383]; format: protein-complex assay
[17] = THP-1 cell cytotoxicity, dose response, cytotoxicity control for non-replicating M. tuberculosis project (AID 489025); format: functional
cells [18] = format: functional
Galanin receptor type 3 = biological target: T5, Galanin receptor type 3 (Homo sapiens, UniProt O60755); experiment: Fluorescence-based cell-based primary high throughput dose response assay to identify antagonists of the Galanin Receptor 3 (GalR3).; format: functional
T5 sequence (O60755 whole entry): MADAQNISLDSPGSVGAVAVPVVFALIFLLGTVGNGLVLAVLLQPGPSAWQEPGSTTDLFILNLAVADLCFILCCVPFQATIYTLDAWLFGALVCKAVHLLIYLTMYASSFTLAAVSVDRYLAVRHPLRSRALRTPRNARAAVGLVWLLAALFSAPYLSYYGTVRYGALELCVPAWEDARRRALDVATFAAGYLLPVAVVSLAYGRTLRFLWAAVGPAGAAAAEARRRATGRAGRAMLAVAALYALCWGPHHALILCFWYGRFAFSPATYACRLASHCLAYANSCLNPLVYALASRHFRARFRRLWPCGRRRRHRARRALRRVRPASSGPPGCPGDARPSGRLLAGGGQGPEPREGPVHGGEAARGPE

cells [19] = format: functional, cell-based; conditions: HEK-CNG
Cytochrome P450 2D6 = Cytochrome P450 2D6 (Homo sapiens, UniProt P10635);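 note: CYP2D6 member of a cytochrome P450 panel assay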
Sequence of Cytochrome P450 2D6 (P10635 whole entry): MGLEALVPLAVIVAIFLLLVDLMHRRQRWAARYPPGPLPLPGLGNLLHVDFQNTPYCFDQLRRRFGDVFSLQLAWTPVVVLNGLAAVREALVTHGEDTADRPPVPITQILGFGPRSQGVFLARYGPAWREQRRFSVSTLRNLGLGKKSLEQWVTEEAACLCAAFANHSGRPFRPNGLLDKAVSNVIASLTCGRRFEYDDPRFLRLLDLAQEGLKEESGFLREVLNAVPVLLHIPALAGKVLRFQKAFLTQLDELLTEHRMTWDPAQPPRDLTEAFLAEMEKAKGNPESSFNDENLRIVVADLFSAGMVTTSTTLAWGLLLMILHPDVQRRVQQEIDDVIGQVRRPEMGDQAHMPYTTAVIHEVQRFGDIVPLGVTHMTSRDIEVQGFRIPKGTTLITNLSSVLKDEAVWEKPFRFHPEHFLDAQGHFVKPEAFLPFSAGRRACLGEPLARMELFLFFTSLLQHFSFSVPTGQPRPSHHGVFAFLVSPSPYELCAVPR

CCN(CC)c1ccc(/C=C2/C(=O)ON=C2C)cc1
IC50 [1]: > 80 µM (inactive)

Cc1ccc(S(=O)(=O)Nc2ccc3ccccc3c2)cc1
IC50 [2]: > 100 µM (not active)
IC50 [3]: > 100 µM (inactive)

COc1cccc(C(=O)N/N=C/c2ccc(Oc3ccc([N+](=O)[O-])cn3)c(OC)c2)c1
IC50 [4]: 3.44 µM (active)
IC50 [5]: 3.84 µM (active)

O=[N+]([O-])c1[nH]cnc1/C=C/c1ccccc1
IC50 (cells [6]): > 29.9 µM (inactive)
EC50 (cells [7]): > 29.9 µM (inactive)

Cn1c(SCC(=O)Nc2ccc3nc(SCC(=O)N4CCCC4)sc3c2)nnc1-c1ccccc1
IC50 [8]: 2.83 µM (active)

Cc1c(C(=O)N2CCc3ccccc3C2)oc2ccc(S(=O)(=O)N3CC(C)CC(C)C3)cc12 (stereo unspecified)
IC50 (cells [6]): > 29.9 µM (inactive)
EC50 (cells [7]): > 29.9 µM (inactive)

Cc1c(C)n(C)c2ccc(C(=O)NCCCN3CCN(C)CC3)cc12
AC50 [9]: 7.04 µM (active)

COc1cccc(/C=C/C(=O)N2CCN(S(=O)(=O)c3ccccc3)CC2)c1
IC50 (Beta-galactosidase): > 80 µM (inactive)

Fc1ccc(/C=N/NC2=Nc3cccc4cccc2c34)cc1
EC50 [10]: 0.233 µM (active)
EC50 [11]: < 0.1 µM (inconclusive)
EC50 (H4): < 0.1 µM (active)
EC50 [12]: 0.343 µM (active)
EC50 [13]: 0.278 µM (active)

COCCNc1nc(C)nc2c1nc(-c1ccccc1)n2CCN1CCCC1
AC50 (Cytochrome P450 3A4): 25.1 µM (inconclusive)

C[N+](C)(C)CCOC(=O)C1(c2ccccc2)CCCC1
IC50 [4]: 1.06 µM (active)
IC50 [5]: 1.12 µM (active)

CCN(CC)c1ccc(NC(=O)c2cncc(Br)c2)cc1
EC50 [10]: > 12 µM (not active)
EC50 [11]: 1.48 µM (active)
EC50 (H4): 14.3 µM (active)
EC50 [12]: > 12 µM (not active)
EC50 [13]: 0.53 µM (active)

CCN1CCN(C(=O)c2cc3c(s2)-c2c(C)cccc2OC3)CC1
EC50 [11]: 5.32 µM (active)
EC50 (H4): 9.85 µM (active)
IC50 (Beta-galactosidase): > 80 µM (inactive)

COc1ccc(-c2nn(C)c(=O)c3ccccc23)cc1CNC(=O)C1CCCCC1
IC50 (Prothrombin): > 50 µM (not active)

Fc1ccccc1/C=N/n1c(S)nnc1-c1cccnc1
IC50 [14]: > 100 µM (inactive)
IC50 [15]: 3.16 µM (active)

Fc1ccc(Oc2cnc3ccccc3n2)cc1
IC50 (Prothrombin): > 50 µM (not active)

Cn1c(=O)c2c(SCC(=O)Nc3ccccc3F)nc(-c3ccccc3F)nc2n(C)c1=O
IC50 [1]: > 80 µM (inactive)

O=C(c1cc2cc(Cl)ccc2[nH]1)N1CCC2(CC1)OCCO2
IC50 (Beta-galactosidase): > 80 µM (inactive)

Cc1ccc(NC(=O)C2CCCN(c3ncccn3)C2)cc1F (stereo unspecified)
EC50 [10]: 1.22 µM (active)
EC50 [16]: < 0.1 µM (active)
EC50 [11]: 0.125 µM (inconclusive)
EC50 (H4): 6.45 µM (active)
EC50 [12]: 0.856 µM (active)
EC50 [13]: 0.141 µM (active)

CN(CC(=O)NCc1ccco1)S(=O)(=O)c1cccc2cccnc12
EC50 (Troponin, cardiac muscle): > 71.5 µM (inactive)

Cc1ccccc1OCCNc1cc(N2CC(C)NC(C)C2)ccc1[N+](=O)[O-] (stereo unspecified)
CC50 [17]: 21.4 µM (active)
IC50 (cells [18]): 12.8 µM (active)

Nc1cccc2ccccc12
AC50 (Cytochrome P450 3A4): 31.6 µM (inconclusive)

O=S(=O)(Nc1cnc2ccccc2c1)c1ccc(Br)cc1OC(F)(F)F
IC50 [2]: > 100 µM (not active)
IC50 [3]: 1.5 µM (active)

CCCCC/C=C\C/C=C\C/C=C\C/C=C\CCCC(=O)O [ARACHIDONIC ACID]
AC50 (Cytochrome P450 3A4): 39.8 µM (inconclusive) and 7.94 µM (inconclusive)

CO/C(O)=C1\C(C)=NC2=C(C(=O)CCC2)C1c1cn(Cc2ccc(Cl)cc2Cl)nc1-c1ccccc1 (stereo unspecified)
IC50 (Galanin receptor type 3): 3.85 µM (active)
EC50 (cells [19]): > 29.9 µM (inactive)
AC50 (Cytochrome P450 2D6): 3.55 µM (inconclusive)

O=C(/C=C/c1ccc(Cl)cc1)N1CCN(c2ccccn2)CC1
IC50 (Beta-galactosidase): > 80 µM (inactive)

CSC1=N/C(=C\c2ccc(C)o2)C(=O)S1
IC50 (Prothrombin): > 50 µM (not active)

Nn1c(COc2ccc(Cl)cc2)n[nH]c1=S
IC50 [14]: > 100 µM (inactive)
IC50 [15]: 2.49 µM (active)

Cc1ccc(/C=N/n2c(S)nnc2-c2ccncc2)o1
IC50 [14]: > 100 µM (inactive)
IC50 [15]: 6.55 µM (active)
